Measured values taken from paper PMC6269769, “Novel Conformationally Constrained Analogues of Agomelatine as New Melatoninergic Ligands” (Molecules, 2012).
Where a name gives a salt, the structure may show the parent alone.

Key:
[1] = target: T1, human melatonin MT2 receptor (Homo sapiens, UniProt P49286); experiment: […]-[…]iodomelatonin displacement, CHO membranes; format: binding
T1 construct: gene MTNR1B; receptor stably expressed in transfected CHO cells, membrane preparation
T1 sequence (P49286 1-362): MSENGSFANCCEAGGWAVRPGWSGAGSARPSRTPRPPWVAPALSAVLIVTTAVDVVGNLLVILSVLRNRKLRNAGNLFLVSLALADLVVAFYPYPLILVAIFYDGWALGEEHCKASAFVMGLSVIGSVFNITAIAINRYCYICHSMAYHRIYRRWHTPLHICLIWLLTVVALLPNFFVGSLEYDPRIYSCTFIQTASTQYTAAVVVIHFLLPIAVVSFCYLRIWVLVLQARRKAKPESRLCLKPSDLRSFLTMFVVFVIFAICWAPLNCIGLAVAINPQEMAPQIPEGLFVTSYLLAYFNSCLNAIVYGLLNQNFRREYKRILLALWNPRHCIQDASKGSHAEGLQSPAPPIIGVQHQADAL

[2] = target: T2, human melatonin MT1 receptor (Homo sapiens, UniProt P48039); experiment: […]-[…]iodomelatonin displacement, CHO membranes; format: binding
T2 construct: gene MTNR1A; receptor stably expressed in transfected CHO cells, membrane preparation
T2 sequence (P48039 whole entry): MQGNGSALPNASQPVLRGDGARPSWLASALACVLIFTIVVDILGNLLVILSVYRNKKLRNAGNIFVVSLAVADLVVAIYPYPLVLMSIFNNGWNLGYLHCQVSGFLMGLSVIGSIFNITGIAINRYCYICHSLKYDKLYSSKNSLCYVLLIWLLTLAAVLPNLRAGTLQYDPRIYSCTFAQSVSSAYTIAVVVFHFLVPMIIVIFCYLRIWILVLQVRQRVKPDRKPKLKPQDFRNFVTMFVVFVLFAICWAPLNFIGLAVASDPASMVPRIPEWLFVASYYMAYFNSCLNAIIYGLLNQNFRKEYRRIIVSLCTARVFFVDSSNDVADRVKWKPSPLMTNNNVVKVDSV

Structure (SMILES) | Ki [1] | Ki [2]
COc1ccc2cccc(CCNc3nccs3)c2c1 [compound 13, 2-[2-(7-Methoxynaphth-1-yl)]-ethylamino]-1,3-thiazole hydrochloride] | 12.5 ± 0.4 nM | 33.9 ± 8.1 nM
COc1ccc2cccc(CCN3CCOC3=O)c2c1 [7a] | 6 ± 0.2 nM | 113 ± 18 nM
COc1ccc2cccc(CC3=NOS(=O)N3)c2c1 (stereo not shown) [compound 3, 4-[(7-Methoxynaphth-1-yl)methyl]-3H-1,2,3,5-oxathiadiazole 2-oxide] | 1300 nM | > 1000 nM
COc1ccc2cccc(CCNc3cc(C)on3)c2c1 [compound 15, 3-[2-(7-Methoxynaphth-1-yl)ethylamino]-5-methyl-1,2-isoxazole hydrochloride] | 20.3 ± 3.9 nM | 48.4 ± 11.2 nM
COc1ccc2cccc(CCNc3ncc(C)s3)c2c1 [compound 14, 2-[2-(7-Methoxynaphth-1-yl)ethylamino]-5-methyl-1,3-thiazole] | 354 ± 32 nM | 389 ± 121 nM
COc1ccc2cccc(CC3NC(=O)NC3=O)c2c1 (stereo not shown) [compound 12, 5-[(7-Methoxynaphth-1-yl)methyl]-imidazolidin-2,4-diones] | 141 ± 31 nM | 2170 ± 63 nM
COc1ccc2cccc(Cc3noc(=O)[nH]3)c2c1 [compound 4, 3-[(7-Methoxynaphth-1-yl)methyl]-1,2,4-oxadiazole-5(4H)-one] | 25.2 ± 10.7 nM | 80 ± 16 nM
COc1ccc2cccc(CCN3CCCC3=O)c2c1 [7b] | 2.1 ± 0.01 nM | 68.5 ± 18.2 nM
COc1ccc2ccc3c(c2c1)CCN(C(C)=O)C3 [9b, 1-(9-Methoxy-1,2,3,4-tetrahydro-benzo[f]isoquinolein-3-yl)ethanone] | 800 ± 59 nM | 3000 ± 27 nM
COc1ccc2cccc(Cc3nn[nH]n3)c2c1 [compound 5, 5-(7-Methoxynaphth-1-ylmethyl)-1H-tetrazole] | 190 ± 84 nM | 380 ± 114 nM
COc1ccc2cccc3c2c1CN(C(C)=O)CC3 [9a, 1-(10-Methoxy-1,2,3,4-tetrahydro-naphto[1,8-cd]azepin-2-yl)ethanone] | 469 ± 44 nM | 2500 ± 57 nM
